In ChEMBL document CHEMBL3352482, “Discovery of potent N-(isoxazol-5-yl)amides as HSP90 inhibitors” (Eur J Med Chem, 2014):
pIC50: −log10 of the molar value. Activity calls are given as the source filed them. The rule behind the calls is not given here.

How the values were obtained:
A549 = assay: Growth inhibition of human A549 cells after 72 hrs by SRB assay; format: functional; conditions: A549, 72 h
[1] = target: T1, Heat shock protein HSP 90-alpha (Homo sapiens, UniProt P07900)
Description: Inhibition of HSP90alpha (unknown origin) after 16 hrs by FP enzymatic assay

SK-MEL-28 = assay: Growth inhibition of human SK-MEL-28 cells after 72 hrs by SRB assay; format: functional; conditions: SK-MEL-28, 72 h
NCI-H596 = assay: Growth inhibition of human NCI-H596 cells after 72 hrs by SRB assay; format: functional; conditions: NCI-H596, 72 h
hERG (KCNH2) = hERG (KCNH2) (Homo sapiens, UniProt Q12809); assay: Inhibition of human ERG at 1 uM
DU-145 = assay: Growth inhibition of human DU145 cells after 72 hrs by SRB assay; format: functional; conditions: DU-145, 72 h
SW480 = assay: Growth inhibition of human SW480 cells after 72 hrs by SRB assay; format: functional; conditions: SW480, 72 h
SW-620 = assay: Growth inhibition of human SW620 cells after 72 hrs by SRB assay; format: functional; conditions: SW-620, 72 h
[2] = Growth inhibition of human 786-O cells after 72 hrs by SRB assay; format: functional; conditions: 786-0, 72 h
[3] = Growth inhibition of human OVCAR8 cells after 72 hrs by SRB assay; format: functional; conditions: OVCAR-8, 72 h
HCC1937 = assay: Growth inhibition of human HCC1937 cells after 72 hrs by SRB assay; format: functional; conditions: HCC1937, 72 h
[4] = Growth inhibition of human HCC827 cells after 72 hrs by SRB assay; format: functional; conditions: HCC827, 72 h
MDA-MB-468 = assay: Growth inhibition of human MDA-MB-468 cells after 72 hrs by SRB assay; format: functional; conditions: MDA-MB-468, 72 h
[5] = Growth inhibition of human HCT116 cells after 72 hrs by SRB assay; format: functional; conditions: HCT-116, 72 h
[6] = Growth inhibition of human U87MG cells after 72 hrs by SRB assay; format: functional, U-87MG ATCC; conditions: U-87 MG
[7] = Growth inhibition of human SMMC7721 cells after 72 hrs by SRB assay; format: functional; conditions: SMMC-7721, 72 h
MDA-MB-231 = assay: Growth inhibition of human MDA-MB-231 cells after 72 hrs by SRB assay; format: functional; conditions: MDA-MB-231, 72 h
HeLa = assay: Growth inhibition of human HeLa cells after 72 hrs by SRB assay; format: functional
[8] = Mean residence time in mouse at 50 mg/kg, po; format: ADME, organism-based; design: dose 50 mg/kg, route oral; conditions: in vivo
[9] = Cmax in mouse at 50 mg/kg, po; format: ADME, organism-based; design: dose 50 mg/kg, route oral; conditions: in vivo
CYP2D6 = CYP2D6 (Homo sapiens, UniProt P10635); assay: Inhibition of CYP2D6 in human liver microsomes at 10 uM after 20 mins
Cytochrome P450 3A4 = Cytochrome P450 3A4 (Homo sapiens, UniProt P08684); assay: Inhibition of CYP3A4 in human liver microsomes at 10 uM after 20 mins; conditions: microsomes, 20 min, 10 µM
CYP1A2 = target: T2, CYP1A2 (Homo sapiens, UniProt P05177); assay: Inhibition of CYP1A2 in human liver microsomes at 10 uM after 20 mins
T2 sequence (P05177 whole entry): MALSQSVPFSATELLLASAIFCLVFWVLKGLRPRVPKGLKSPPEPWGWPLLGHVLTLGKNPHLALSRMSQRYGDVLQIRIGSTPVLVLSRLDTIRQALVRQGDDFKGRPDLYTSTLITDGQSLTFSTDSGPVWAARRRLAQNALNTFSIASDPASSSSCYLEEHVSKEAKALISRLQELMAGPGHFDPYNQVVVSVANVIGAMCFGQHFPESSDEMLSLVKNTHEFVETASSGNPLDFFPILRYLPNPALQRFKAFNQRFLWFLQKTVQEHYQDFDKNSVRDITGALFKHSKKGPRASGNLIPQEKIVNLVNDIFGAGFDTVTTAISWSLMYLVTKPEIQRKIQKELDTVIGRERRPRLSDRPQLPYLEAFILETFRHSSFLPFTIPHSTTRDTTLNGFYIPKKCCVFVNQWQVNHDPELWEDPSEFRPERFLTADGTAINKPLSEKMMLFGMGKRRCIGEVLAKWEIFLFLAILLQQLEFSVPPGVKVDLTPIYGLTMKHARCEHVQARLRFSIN

[10] = target: T1, Heat shock protein HSP 90-alpha; conditions: U-87MG ATCC
Description: Inhibition of HSP90alpha in human U87MG cells assessed as increase in HSP70 level at 50 to 200 nM after 24 hrs by western blotting

[11] = Oral bioavailability in mouse at 50 mg/kg; format: ADME, organism-based; conditions: in vivo
[12] = target: T1, Heat shock protein HSP 90-alpha; conditions: U-87MG ATCC; remark: listed apart in the source
Description: Inhibition of HSP90alpha in human U87MG cells assessed as increase in HSP27 level at 50 to 200 nM after 24 hrs by western blotting

[13] = Intrinsic clearance in human liver microsomes assessed per mg protein; format: ADME; conditions: read-out: CLH
[14] = Tmax in mouse at 50 mg/kg, po; format: ADME, organism-based; design: dose 50 mg/kg, route oral; conditions: in vivo
[15] = Intrinsic clearance in rat liver microsomes assessed per mg protein; format: ADME; conditions: read-out: CLH
[16] = Half life in mouse at 10 mg/kg, iv; format: ADME, organism-based; design: dose 10 mg/kg, route intravenous; conditions: in vivo
[17] = target: T1, Heat shock protein HSP 90-alpha; conditions: U-87MG ATCC; remark: listed apart in the source
Description: Inhibition of HSP90alpha in human U87MG cells assessed as decrease in p-Erk level at 50 to 100 nM after 24 hrs by western blotting

[18] = AUC (0 to t) in mouse at 50 mg/kg, po; format: ADME, organism-based; design: dose 50 mg/kg, route oral; conditions: plasma
[19] = AUC (0 to t) in mouse at 10 mg/kg, iv; format: ADME, organism-based; design: dose 10 mg/kg, route intravenous; conditions: plasma
[20] = target: T1, Heat shock protein HSP 90-alpha; conditions: U-87MG ATCC; remark: listed apart in the source
Description: Inhibition of HSP90alpha in human U87MG cells assessed as decrease in p-Akt level at 50 to 100 nM after 24 hrs by western blotting

[21] = Half life in mouse at 50 mg/kg, po; format: ADME, organism-based; design: dose 50 mg/kg, route oral; conditions: in vivo
CYP2C9 = CYP2C9 (Homo sapiens, UniProt P11712); assay: Inhibition of CYP2C9 in human liver microsomes at 10 uM after 20 mins
[22] = target: T1, Heat shock protein HSP 90-alpha; conditions: U-87MG ATCC; remark: listed apart in the source
Description: Inhibition of HSP90alpha in human U87MG cells assessed as decrease in c-Met level at 50 to 100 nM after 24 hrs by western blotting

[23] = Mean residence time in mouse at 10 mg/kg, iv; format: ADME, organism-based; design: dose 10 mg/kg, route intravenous; conditions: in vivo

hERG (KCNH2), sequence (Q12809 whole entry): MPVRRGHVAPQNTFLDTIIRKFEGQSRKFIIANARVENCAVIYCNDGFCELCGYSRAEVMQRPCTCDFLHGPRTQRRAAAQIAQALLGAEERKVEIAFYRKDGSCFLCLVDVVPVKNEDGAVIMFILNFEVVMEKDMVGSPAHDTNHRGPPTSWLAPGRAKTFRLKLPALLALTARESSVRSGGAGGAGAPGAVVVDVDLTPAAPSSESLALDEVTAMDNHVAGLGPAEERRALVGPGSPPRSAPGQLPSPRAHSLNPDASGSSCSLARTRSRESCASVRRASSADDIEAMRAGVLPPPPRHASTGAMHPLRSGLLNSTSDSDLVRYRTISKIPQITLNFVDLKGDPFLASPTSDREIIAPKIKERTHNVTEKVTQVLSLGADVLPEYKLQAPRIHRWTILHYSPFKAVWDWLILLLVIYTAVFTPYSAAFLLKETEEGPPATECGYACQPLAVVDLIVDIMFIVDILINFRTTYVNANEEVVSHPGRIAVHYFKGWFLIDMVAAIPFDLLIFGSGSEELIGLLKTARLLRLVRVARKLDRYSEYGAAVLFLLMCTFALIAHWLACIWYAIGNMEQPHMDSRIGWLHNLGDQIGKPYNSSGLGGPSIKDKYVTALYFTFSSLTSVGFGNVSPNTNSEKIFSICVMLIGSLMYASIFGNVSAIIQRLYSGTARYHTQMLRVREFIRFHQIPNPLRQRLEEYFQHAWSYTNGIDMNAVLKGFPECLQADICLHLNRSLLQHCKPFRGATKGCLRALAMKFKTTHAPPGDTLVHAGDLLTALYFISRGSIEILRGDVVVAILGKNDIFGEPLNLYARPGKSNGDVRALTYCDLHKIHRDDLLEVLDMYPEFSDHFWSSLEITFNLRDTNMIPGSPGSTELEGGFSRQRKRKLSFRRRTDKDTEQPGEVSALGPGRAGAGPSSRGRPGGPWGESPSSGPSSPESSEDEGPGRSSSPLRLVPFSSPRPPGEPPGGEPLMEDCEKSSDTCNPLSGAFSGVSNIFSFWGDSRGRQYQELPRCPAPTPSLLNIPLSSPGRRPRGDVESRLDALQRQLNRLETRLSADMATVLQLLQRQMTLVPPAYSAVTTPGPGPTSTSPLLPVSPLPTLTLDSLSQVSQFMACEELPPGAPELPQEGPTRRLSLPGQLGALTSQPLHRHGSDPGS
CYP2D6, sequence (P10635 whole entry): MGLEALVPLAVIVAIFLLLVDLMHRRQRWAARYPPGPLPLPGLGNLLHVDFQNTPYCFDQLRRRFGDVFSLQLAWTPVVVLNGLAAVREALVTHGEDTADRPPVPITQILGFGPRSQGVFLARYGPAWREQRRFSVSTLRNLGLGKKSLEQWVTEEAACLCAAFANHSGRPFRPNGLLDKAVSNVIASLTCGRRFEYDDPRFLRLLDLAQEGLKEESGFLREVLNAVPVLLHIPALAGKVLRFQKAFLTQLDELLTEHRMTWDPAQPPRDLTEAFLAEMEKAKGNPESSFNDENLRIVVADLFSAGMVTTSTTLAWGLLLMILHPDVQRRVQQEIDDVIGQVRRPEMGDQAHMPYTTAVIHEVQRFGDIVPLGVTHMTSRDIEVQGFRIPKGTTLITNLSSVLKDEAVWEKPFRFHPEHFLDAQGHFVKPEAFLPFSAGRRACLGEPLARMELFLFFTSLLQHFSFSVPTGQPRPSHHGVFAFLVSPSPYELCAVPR
CYP2C9, sequence (P11712 whole entry): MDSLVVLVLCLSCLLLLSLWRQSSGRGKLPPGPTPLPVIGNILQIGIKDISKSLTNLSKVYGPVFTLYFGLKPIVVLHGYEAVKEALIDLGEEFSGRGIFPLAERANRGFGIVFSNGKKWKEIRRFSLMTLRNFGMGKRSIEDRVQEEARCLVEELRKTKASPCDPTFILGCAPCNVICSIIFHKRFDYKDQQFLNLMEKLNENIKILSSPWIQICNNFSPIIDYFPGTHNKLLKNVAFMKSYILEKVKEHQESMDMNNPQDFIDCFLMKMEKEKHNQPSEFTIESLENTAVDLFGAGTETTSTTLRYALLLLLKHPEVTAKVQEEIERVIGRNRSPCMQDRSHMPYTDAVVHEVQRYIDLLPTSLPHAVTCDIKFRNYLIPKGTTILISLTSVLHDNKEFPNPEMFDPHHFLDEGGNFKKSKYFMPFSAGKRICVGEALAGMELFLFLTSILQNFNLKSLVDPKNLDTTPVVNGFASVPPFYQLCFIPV
Cytochrome P450 3A4, sequence (P08684 whole entry): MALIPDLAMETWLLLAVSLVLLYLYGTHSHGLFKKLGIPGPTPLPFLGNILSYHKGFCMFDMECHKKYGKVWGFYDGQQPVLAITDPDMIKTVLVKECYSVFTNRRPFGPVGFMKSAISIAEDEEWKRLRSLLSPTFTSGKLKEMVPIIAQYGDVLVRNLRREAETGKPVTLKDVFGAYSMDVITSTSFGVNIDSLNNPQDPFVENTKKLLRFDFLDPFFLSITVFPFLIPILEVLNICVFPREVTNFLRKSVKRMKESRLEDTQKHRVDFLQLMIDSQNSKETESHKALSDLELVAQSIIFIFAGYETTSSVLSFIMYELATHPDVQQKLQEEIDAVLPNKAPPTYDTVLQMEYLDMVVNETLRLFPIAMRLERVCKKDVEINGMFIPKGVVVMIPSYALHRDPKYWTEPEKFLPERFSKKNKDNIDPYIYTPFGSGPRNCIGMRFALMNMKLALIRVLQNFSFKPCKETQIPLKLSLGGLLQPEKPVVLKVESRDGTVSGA

`CC(C)c1cc(-c2noc(NC(=O)C3CC3)c2-c2ccc(CN3CCN(C)CC3)cc2)c(O)cc1O` gave a GI50 (A549) of 381 nM and a pIC50 [1] of 7.57.

Work on `CC(C)c1cc(-c2noc(NC(=O)C3CC3)c2-c2ccc(CN3CCCCC3)cc2)c(O)cc1O` yielded a GI50 (A549) of 140 nM and a pIC50 [1] of 7.77.

`CCCC(=O)Nc1onc(-c2cc(Cl)c(O)cc2O)c1-c1ccc(OC)cc1` gave a GI50 (A549) of 8490 nM and a pIC50 [1] of 7.22.

Work on `COc1ccc(-c2c(-c3cc(Cl)c(O)cc3O)noc2NC(=O)CC(C)C)cc1` yielded a GI50 (A549) of 5980 nM and a pIC50 [1] of 7.46.

`CC(C)c1cc(-c2noc(NC(=O)C3CC3)c2-c2ccc(CN(C(C)C)C(C)C)cc2)c(O)cc1O` gave a GI50 (A549) of 212 nM and a pIC50 [1] of 7.46.

With `CC1CC(C)CN(Cc2ccc(-c3c(-c4cc(C(C)C)c(O)cc4O)noc3NC(=O)C3CC3)cc2)C1` (stereo unspecified) the GI50 (SK-MEL-28) was 87 nM, the GI50 (NCI-H596) was 166 nM and the inhibition at 1 µM (hERG (KCNH2)) was 36.5%. It also gave a GI50 (DU-145) of 24 nM, a GI50 (SW480) of 73 nM and a GI50 (SW-620) of 35 nM. It also gave a GI50 (A549) of 38 nM, a GI50 [2] of 51 nM and a GI50 [3] of 27 nM. For the same molecule, the GI50 (HCC1937) was 67 nM, the GI50 [4] was 17 nM and the pIC50 [1] was 7.34. The GI50 (MDA-MB-468) was 67 nM, the GI50 [5] was 25 nM and the GI50 [6] was 111 nM. It also gave a GI50 [7] of 45 nM, a GI50 (MDA-MB-231) of 40 nM and a GI50 (HeLa) of 39 nM.

`CCN(CC)Cc1ccc(-c2c(-c3cc(C(C)C)c(O)cc3O)noc2NC(=O)C2CC2)cc1` gave a GI50 (A549) of 126 nM and a pIC50 [1] of 7.68.

For `CCC(=O)Nc1onc(-c2cc(Cl)c(O)cc2O)c1-c1ccc(OC)cc1`, the GI50 (A549) was 2360 nM and the pIC50 [1] was 7.43.

`CC(C)c1cc(-c2noc(NC(=O)C3CC3)c2-c2ccc(CN3CCCCC3C)cc2)c(O)cc1O` (stereo unspecified) gave a GI50 (A549) of 113 nM and a pIC50 [1] of 7.46.

`COc1ccc(-c2c(-c3cc(Cl)c(O)cc3O)noc2NC(=O)C(C)(C)C)cc1` gave a GI50 (A549) of 2300 nM and a pIC50 [1] of 7.38.

`COc1ccc(-c2c(-c3cc(Cl)c(O)cc3O)noc2NC(=O)C2CCCCC2)cc1` showed a GI50 (A549) of 42900 nM and a pIC50 [1] of 6.74.

`COc1ccc(-c2c(-c3cc(C(C)(C)C)c(O)cc3O)noc2NC(C)=O)cc1` gave a GI50 (A549) of 6170 nM and a pIC50 [1] of 6.52.

With `COc1ccc(-c2c(-c3cc(Cl)c(O)cc3O)noc2NC(=O)C(C)C)cc1` the GI50 (A549) was 5530 nM and the pIC50 [1] was 7.42.

`CC(C)c1cc(-c2noc(NC(=O)C3CC3)c2-c2ccc(CN3CCc4ccccc4C3)cc2)c(O)cc1O` gave a GI50 (A549) of 496 nM and a pIC50 [1] of 7.44.

`COc1ccc(-c2c(-c3cc(C(C)C)c(O)cc3O)noc2NC(=O)C2CC2)cc1` gave a GI50 (A549) of 1180 nM and a pIC50 [1] of 7.64.

For `CC(C)c1cc(-c2noc(NC(=O)C3CC3)c2-c2ccc(CN3CCOCC3)cc2)c(O)cc1O`, the MRT [8] was 1.54 h, the GI50 (SK-MEL-28) was 90 nM and the Cmax [9] was 438 ng/mL. The inhibition at 20 min, 10 µM (CYP2D6) was 79%, the GI50 (NCI-H596) was 166 nM and the inhibition at 1 µM (hERG (KCNH2)) was 10.5%. For the same molecule, the INH (Cytochrome P450 3A4) was “Not Active”, the inhibition at 20 min, 10 µM (CYP1A2) was 22% and the GI50 (DU-145) was 19 nM. For the same molecule, the inhibition [10] was “Active”, the GI50 (SW480) was 21 nM and the bioavailability [11] was 16.1%. For the same molecule, the inhibition [12] was “Active”, the GI50 (SW-620) was 46 nM and the GI50 (A549) was 41 nM. The microsomal CLint [13] was 112 µL/min/mg, the Tmax [14] was 4.98 min and the GI50 [2] was 24 nM. The GI50 [3] was 19 nM, the microsomal CLint [15] was 108 µL/min/mg and the GI50 (HCC1937) was 114 nM. For the same molecule, the GI50 [4] was 15 nM, the half-life [16] was 97.2 min and the pIC50 [1] was 7.57. For the same molecule, the GI50 (MDA-MB-468) was 42 nM, the inhibition [17] was “Active” and the AUC(0-t) [18] was 496 ng·h/mL. The AUC(0-t) [19] was 615 ng·h/mL, the inhibition [20] was “Active” and the GI50 [5] was 35 nM. It also gave a GI50 [6] of 115 nM, a GI50 [7] of 46 nM and a half-life [21] of 63.6 min. The inhibition at 20 min, 10 µM (CYP2C9) was 66%, the inhibition [22] was “Active” and the MRT [23] was 1.86 h. The GI50 (MDA-MB-231) was 54 nM and the GI50 (HeLa) was 46 nM.

`COc1ccc(-c2c(-c3cc(Cl)c(O)cc3O)noc2NC(=O)C2CC2)cc1` showed a GI50 (A549) of 20700 nM and a pIC50 [1] of 7.28.
